In patent US10273242B2, “Compound inhibiting activities of BTK and/or JAK3 kinases” (BEIJING HANMI PHARMACEUTICAL CO., LTD., priority 2013, dated 2019):

Columns and labels:
DBA/1J mice = test: Type II collagen-induced arthritis (CIA) model in DBA/1J mice; type: in vivo; conditions: 3 mg/kg and 10 mg/kg orally once a day for 14 days
Text: The CIA model is a widely-used animal model in the study of drugs for the treatment of rheumatoid arthritis in human. The experimental animals used in this experiment are DBA/1J mice (male, 6 to 8 weeks of age, purchased from Shanghai Silaike Laboratroy Animal Co., Ltd., China). Mice were housed in an IVC system.
In order to induce the mice CIA model, a bovine type II collagen (CII) (purchased from Chondrex company, No.: 20022) solution was emulsified with the same volume of complete Freund's adjuvant (CFA) (purchased from Sigma-Aldrich, No.: F5881) using an electronic homogenizer to prepare an emulsion. Then, 70 μL of the prepared emulsion was intradermally injected into the base of the tail of the mice as a primary immunization. Three weeks after the primary immunization, one booster immunization was carried out. […] According to the following criteria, Mice were evaluated for the severity of arthritis using an established scoring system ranging from 0 to 4 (0 score: no evidence of edema or swelling; 1 score: mild edema and redness confined to the ankle joint or tarsal; 2 scores: mild edema and redness, from the ankle joint to the tarsal; 3 scores: moderate edema and redness, from the ankle joint to the metatarsal; and 4 scores: severe edema and redness, from the ankle to the whole instep and toes, or ankylosis of the ankle or wrist joints). […]

Lewis rats = test: Adjuvant-induced arthritis (AIA) model in rats; type: in vivo; conditions: 30 mg/kg and 100 mg/kg orally once a day for 7 days
Description: 100 mg of inactivated Mycobacterium tuberculosis (purchased from BD Difco, No.: 231141) accurately weighed and dissolved in 5 mL of incomplete Freund's adjuvant (IFA) (purchased from Sigma, No.: F5506), and then with 5 mL of physiological saline added, was homogeneously emulsified into 10 mg/mL of complete Freund's adjuvant (CFA). […] Rats were evaluated for the severity of arthritis using an established scoring system ranging from 0 to 4 as follows: 0=no evidence of erythema or swelling; 1=slight erythema or swelling of one of the toe joints; 2=erythema or swelling of more than one toe; 3=swelling of the ankle or wrist joint; 4=swelling of all toes including the ankle joint. All four paws of the rat were scored individually, and the highest score was 16.
The paw volumes of the rats were measured by the drainage method using a plethysmometer (Plethysmometer PV-200, Chengdu Taimeng Science and Technology Co., Ltd.) to determine the volumes below the ankle joints (in mL). The rats were measured for paw volumes every other day from day 10 after primary immunization, i.e. day 1 of the administration. […]

[1] = test system: p-PLCγ2 (pY1217) in Ramos cells; test: p-PLCγ2 inhibition assay in Ramos cells (Western blot); type: cell-based; conditions: compound 1 hour, anti-human IgM stimulation
Description: (§1) Ramos cells (purchased from the Beijing Union Medical College) with starvation culture for 1 hour were treated with the compounds of the present invention for 1 hour, and then rinsed with PBS buffer (pH 7.2) to remove the compounds. Then they were resuspended in 100 μL of serum-free culture medium containing 1 μM of anti-human IgM F(ab′)2 (purchased from SBA company, No.: 2022-01) and stimulated on ice for 10 minutes. The cells were rinsed with PBS buffer (pH 7.2) to remove IgM and resuspended in 100 μL of protein lysis buffer (purchased from Sigma, No.: C2978), and then prepared and quantified the protein sample. 100 μg of the protein sample were taken and loaded on polyacrylamide gels for electrophoresis under 200V of voltage. After electrophoresis, protein blots were transferred to a PVDF membrane. […] The protein expression was detected by coloration using ECL substrate (purchased from GE, No.: RPN2109).

[2] = test system: p-BTK (pY223) in Ramos cells; test: p-BTK inhibition assay in Ramos cells (Western blot); type: cell-based; conditions: compound 1 hour, anti-human IgM stimulation
Description: as §1

## C=CC(=O)N1CC[C@@H](Nc2nc(Nc3cc(C)ns3)nc3ccsc23)C1 [Example 132, (R)-1-(3-((2-((3-methyl-isothiazol-5-yl)amino)thieno[3,2-d]pyrimidin-4-yl)amino)pyrrolidin-1-yl)prop-2-en-1-one]
DBA/1J mice
  therapeutic effect on arthritis (arthritis severity scores): good therapeutic effect on arthritis in the CIA model at the designed doses in a dose dependent manner
Lewis rats
  therapeutic effect on arthritis (arthritis severity scores): good therapeutic effect on arthritis in the AIA model at the designed doses
[1]
  inhibition of expression of p-PLCγ2: significantly inhibit the expressions of p-BTK and p-PLCγ2 in Ramos cells in a dose-dependent manner
[2]
  inhibition of expression of p-BTK: significantly inhibit the expressions of p-BTK and p-PLCγ2 in Ramos cells in a dose-dependent manner
